{"source": "ChEMBL document CHEMBL5154648", "about": "“Antitumor activity of novel POLA1-HDAC11 dual inhibitors” (Eur J Med Chem, 2022)", "key": {"NCI-H460": {"tested_on": "NCI-H460", "experiment": "Antiproliferative activity against human NCI-H460 cells incubated for 24 hrs followed by incubating in drug-free medium for 48 hrs and measured by SRB assay", "format": "functional, cell-based"}, "THP-1": {"tested_on": "THP-1", "experiment": "Antiproliferative activity against human THP-1 cells incubated for 24 hrs followed by incubating in drug-free medium for 48 hrs and measured by SRB assay", "format": "functional, cell-based"}, "U2932": {"tested_on": "U2932", "experiment": "Antiproliferative activity against human U2932 cells incubated for 24 hrs followed by incubating in drug-free medium for 48 hrs and measured by SRB assay", "format": "functional, cell-based"}, "[1]": {"experiment": "Antiproliferative activity against multi-drug resistant human A2780-DX cells incubated for 24 hrs followed by incubating in drug-free medium for 48 hrs and measured by SRB assay", "format": "functional, cell-based"}, "[2]": {"experiment": "Antiproliferative activity against human MM432 cells incubated for 24 hrs followed by incubating in drug-free medium for 48 hrs and measured by SRB assay", "format": "functional, cell-based"}, "NB-4": {"tested_on": "NB-4", "experiment": "Antiproliferative activity against human NB-4 cells incubated for 24 hrs followed by incubating in drug-free medium for 48 hrs and measured by SRB assay", "format": "functional, cell-based"}, "[3]": {"biological_target": "T1, DNA polymerase alpha catalytic subunit (Homo sapiens) (UniProt P09884)", "T1 sequence (whole entry)": "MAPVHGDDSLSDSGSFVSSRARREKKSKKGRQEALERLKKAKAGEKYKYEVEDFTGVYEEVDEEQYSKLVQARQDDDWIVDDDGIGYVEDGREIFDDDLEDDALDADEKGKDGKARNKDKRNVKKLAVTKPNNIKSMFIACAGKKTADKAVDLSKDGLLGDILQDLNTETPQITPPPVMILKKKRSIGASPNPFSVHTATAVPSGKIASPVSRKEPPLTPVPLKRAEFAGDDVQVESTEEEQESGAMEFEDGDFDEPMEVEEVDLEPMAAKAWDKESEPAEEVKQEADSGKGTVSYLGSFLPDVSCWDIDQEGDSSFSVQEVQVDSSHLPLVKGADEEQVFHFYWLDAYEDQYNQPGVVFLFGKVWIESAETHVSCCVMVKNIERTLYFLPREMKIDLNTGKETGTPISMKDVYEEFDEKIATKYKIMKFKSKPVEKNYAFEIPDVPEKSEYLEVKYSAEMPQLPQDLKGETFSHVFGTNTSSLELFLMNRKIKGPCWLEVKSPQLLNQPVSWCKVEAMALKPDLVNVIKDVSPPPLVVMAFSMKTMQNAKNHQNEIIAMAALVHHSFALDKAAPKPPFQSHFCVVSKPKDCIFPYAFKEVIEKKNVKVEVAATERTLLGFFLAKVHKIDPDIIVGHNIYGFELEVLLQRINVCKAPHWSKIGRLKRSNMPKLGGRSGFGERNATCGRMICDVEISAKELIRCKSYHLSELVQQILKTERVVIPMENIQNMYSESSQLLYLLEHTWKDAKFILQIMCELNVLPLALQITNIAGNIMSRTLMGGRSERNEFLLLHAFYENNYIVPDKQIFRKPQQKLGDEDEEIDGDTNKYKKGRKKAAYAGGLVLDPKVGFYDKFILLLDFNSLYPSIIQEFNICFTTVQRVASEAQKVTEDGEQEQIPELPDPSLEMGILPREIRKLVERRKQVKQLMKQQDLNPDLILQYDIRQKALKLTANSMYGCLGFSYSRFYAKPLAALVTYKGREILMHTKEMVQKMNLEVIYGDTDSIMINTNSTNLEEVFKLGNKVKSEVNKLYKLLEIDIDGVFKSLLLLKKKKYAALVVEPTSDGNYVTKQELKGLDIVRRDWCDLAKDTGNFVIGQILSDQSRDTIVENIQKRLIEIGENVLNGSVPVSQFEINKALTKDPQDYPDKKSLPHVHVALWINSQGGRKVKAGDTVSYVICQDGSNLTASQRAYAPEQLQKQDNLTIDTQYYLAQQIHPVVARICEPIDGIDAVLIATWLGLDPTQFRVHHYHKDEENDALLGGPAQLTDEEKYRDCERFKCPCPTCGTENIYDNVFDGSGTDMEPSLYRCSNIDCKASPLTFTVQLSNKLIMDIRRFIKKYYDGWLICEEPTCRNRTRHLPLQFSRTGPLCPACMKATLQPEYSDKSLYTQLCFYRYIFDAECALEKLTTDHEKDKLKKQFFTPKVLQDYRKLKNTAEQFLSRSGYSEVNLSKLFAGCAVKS", "experiment": "Inhibition of POLA1 in human NCI-H460 cells at 0.1 to 0.4 uM assessed as upregulation of p21 expression and measured by Western blot analysis", "format": "cell-based", "conditions": "dose 0.1-0.4 µM"}, "Z-138": {"tested_on": "Z-138", "experiment": "Antiproliferative activity against human Z138 cells incubated for 24 hrs followed by incubating in drug-free medium for 48 hrs and measured by SRB assay", "format": "functional, cell-based"}, "[4]": {"experiment": "Antiproliferative activity against human U-87 MG cells incubated for 24 hrs followed by incubating in drug-free medium for 48 hrs and measured by SRB assay", "format": "functional, cell-based, U-87MG ATCC"}, "MDA-MB-436": {"tested_on": "MDA-MB-436", "experiment": "Antiproliferative activity against human MDA-MB-436 cells incubated for 24 hrs followed by incubating in drug-free medium for 48 hrs and measured by SRB assay", "format": "functional, cell-based"}, "[5]": {"experiment": "Resistance index, ratio of IC50 for human NCI-H460 cells to IC50 for H460-R9A cells", "format": "functional"}, "MM473": {"tested_on": "MM473", "experiment": "Antiproliferative activity against human MM473 cells incubated for 24 hrs followed by incubating in drug-free medium for 48 hrs and measured by SRB assay", "format": "functional, cell-based"}, "A2780": {"tested_on": "A2780", "experiment": "Antiproliferative activity against human A2780 cells incubated for 24 hrs followed by incubating in drug-free medium for 48 hrs and measured by SRB assay", "format": "functional, cell-based"}, "Ramos": {"tested_on": "Ramos", "experiment": "Antiproliferative activity against human Ramos cells incubated for 24 hrs followed by incubating in drug-free medium for 48 hrs and measured by SRB assay", "format": "functional, cell-based"}, "L-428": {"tested_on": "L-428", "experiment": "Antiproliferative activity against human L-428 cells incubated for 24 hrs followed by incubating in drug-free medium for 48 hrs and measured by SRB assay", "format": "functional, cell-based"}, "[6]": {"experiment": "Antiproliferative activity against human MM487 cells incubated for 24 hrs followed by incubating in drug-free medium for 48 hrs and measured by SRB assay", "format": "functional, cell-based"}, "[7]": {"experiment": "Resistance index, ratio of IC50 for human A2780 cells to IC50 for A2780-DX cells", "format": "functional"}, "[8]": {"experiment": "Antiproliferative activity against human H460-R9A cells incubated for 24 hrs followed by incubating in drug-free medium for 48 hrs and measured by SRB assay", "format": "functional, cell-based"}, "Histone deacetylase 11": {"biological_target": "T2, Histone deacetylase 11 (Homo sapiens, UniProt Q96DB2)", "T2 sequence (Q96DB2 whole entry)": "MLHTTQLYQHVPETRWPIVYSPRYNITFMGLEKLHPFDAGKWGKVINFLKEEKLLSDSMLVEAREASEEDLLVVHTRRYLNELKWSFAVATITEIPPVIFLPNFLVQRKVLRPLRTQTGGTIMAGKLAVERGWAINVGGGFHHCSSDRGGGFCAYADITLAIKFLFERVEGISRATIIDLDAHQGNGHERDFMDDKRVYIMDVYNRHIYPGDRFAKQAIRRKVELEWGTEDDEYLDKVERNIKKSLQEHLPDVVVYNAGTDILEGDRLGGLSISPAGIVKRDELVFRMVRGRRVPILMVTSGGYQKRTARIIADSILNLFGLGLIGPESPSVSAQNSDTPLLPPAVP", "experiment": "Inhibition of HDAC11 (unknown origin) using fluorogenic peptide 382 RHKK(Ac)AM as substrate and measured by fluorescence assay"}}, "note": "The source made the active and inactive calls. No cut-off for these calls is given here.", "data": [{"smiles": "O=C(O)C=Cc1ccc(-c2ccc(O)c(C34CC5CC(CC(C5)C3)C4)c2)cc1", "values": [{"measurement": "IC50", "setting": "NCI-H460", "value": 0.12, "unit": "µM"}, {"measurement": "IC50", "setting": "THP-1", "value": 0.15, "unit": "µM"}, {"measurement": "IC50", "setting": "U2932", "value": 0.077, "unit": "µM"}, {"measurement": "IC50", "setting": "[1]", "value": 0.17, "unit": "µM"}, {"measurement": "IC50", "setting": "[2]", "value": 0.43, "unit": "µM"}, {"measurement": "IC50", "setting": "NB-4", "value": 0.1, "unit": "µM"}, {"measurement": "inhibition", "setting": "[3]", "value": "Active"}, {"measurement": "IC50", "setting": "Z-138", "value": 0.026, "unit": "µM"}, {"measurement": "IC50", "setting": "[4]", "value": 0.53, "unit": "µM"}, {"measurement": "IC50", "setting": "MDA-MB-436", "value": 0.55, "unit": "µM"}, {"measurement": "Ratio IC50", "setting": "[5]", "value": 70}, {"measurement": "IC50", "setting": "MM473", "value": 0.6, "unit": "µM"}, {"measurement": "IC50", "setting": "A2780", "value": 0.098, "unit": "µM"}, {"measurement": "IC50", "setting": "Ramos", "value": 0.29, "unit": "µM"}, {"measurement": "IC50", "setting": "L-428", "value": 0.45, "unit": "µM"}, {"measurement": "IC50", "setting": "[6]", "value": 0.1, "unit": "µM"}, {"measurement": "Ratio IC50", "setting": "[7]", "value": 1.7}, {"measurement": "IC50", "setting": "[8]", "value": 8.4, "unit": "µM"}, {"measurement": "IC50", "setting": "Histone deacetylase 11", "value": "> 10", "unit": "µM"}]}, {"smiles": "CC(Oc1ccc(-c2ccc(C=CC(=O)O)cc2)cc1C12CC3CC(CC(C3)C1)C2)C(=O)NO", "note": "(configuration not stated)", "values": [{"measurement": "IC50", "setting": "NCI-H460", "value": 0.26, "unit": "µM"}, {"measurement": "IC50", "setting": "THP-1", "value": 0.52, "unit": "µM"}, {"measurement": "IC50", "setting": "U2932", "value": 0.77, "unit": "µM"}, {"measurement": "IC50", "setting": "[1]", "value": 0.66, "unit": "µM"}, {"measurement": "IC50", "setting": "[2]", "value": 1.4, "unit": "µM"}, {"measurement": "IC50", "setting": "NB-4", "value": 0.23, "unit": "µM"}, {"measurement": "inhibition", "setting": "[3]", "value": "Active"}, {"measurement": "IC50", "setting": "Z-138", "value": 0.16, "unit": "µM"}, {"measurement": "IC50", "setting": "[4]", "value": 1, "unit": "µM"}, {"measurement": "IC50", "setting": "MDA-MB-436", "value": 0.77, "unit": "µM"}, {"measurement": "Ratio IC50", "setting": "[5]", "value": 8.5}, {"measurement": "IC50", "setting": "MM473", "value": 1.4, "unit": "µM"}, {"measurement": "IC50", "setting": "A2780", "value": 0.95, "unit": "µM"}, {"measurement": "IC50", "setting": "Ramos", "value": 1.2, "unit": "µM"}, {"measurement": "IC50", "setting": "L-428", "value": 3.2, "unit": "µM"}, {"measurement": "IC50", "setting": "[6]", "value": 0.73, "unit": "µM"}, {"measurement": "Ratio IC50", "setting": "[7]", "value": 0.7}, {"measurement": "IC50", "setting": "[8]", "value": 2.2, "unit": "µM"}, {"measurement": "IC50", "setting": "Histone deacetylase 11", "value": 8.23, "unit": "µM"}]}, {"smiles": "O=C(O)C=Cc1ccc(-c2ccc(OCC(=O)NO)c(C34CC5CC(CC(C5)C3)C4)c2)cc1", "values": [{"measurement": "IC50", "setting": "NCI-H460", "value": 0.25, "unit": "µM"}, {"measurement": "IC50", "setting": "THP-1", "value": 0.42, "unit": "µM"}, {"measurement": "IC50", "setting": "U2932", "value": 0.52, "unit": "µM"}, {"measurement": "IC50", "setting": "[1]", "value": 0.41, "unit": "µM"}, {"measurement": "IC50", "setting": "[2]", "value": 0.9, "unit": "µM"}, {"measurement": "IC50", "setting": "NB-4", "value": 0.18, "unit": "µM"}, {"measurement": "inhibition", "setting": "[3]", "value": "Active"}, {"measurement": "IC50", "setting": "Z-138", "value": 0.038, "unit": "µM"}, {"measurement": "IC50", "setting": "[4]", "value": 1.1, "unit": "µM"}, {"measurement": "IC50", "setting": "MDA-MB-436", "value": 0.64, "unit": "µM"}, {"measurement": "Ratio IC50", "setting": "[5]", "value": 11.2}, {"measurement": "IC50", "setting": "MM473", "value": 12, "unit": "µM"}, {"measurement": "IC50", "setting": "A2780", "value": 0.6, "unit": "µM"}, {"measurement": "IC50", "setting": "Ramos", "value": 0.71, "unit": "µM"}, {"measurement": "IC50", "setting": "L-428", "value": 2.1, "unit": "µM"}, {"measurement": "IC50", "setting": "[6]", "value": 22, "unit": "µM"}, {"measurement": "Ratio IC50", "setting": "[7]", "value": 0.7}, {"measurement": "IC50", "setting": "[8]", "value": 2.8, "unit": "µM"}, {"measurement": "IC50", "setting": "Histone deacetylase 11", "value": 6.09, "unit": "µM"}]}]}
